Laboratory results: patent US11505536B2, “Dihydroorotate dehydrogenase inhibitors” (Janssen Biotech, Inc., priority 2019, dated 2022)

Legend:
[1] = molecular target: human DHODH (Homo sapiens (Human), UniProt Q02127); assay: DHODH Enzymatic Assay; type: biochemical; details: purified human DHODH, DCIP absorbance, end-point mode; read-out: hDHODH IC50
How it was run: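 Purified human DHODH in […] HEPES pH 7.5, 150 mM NaCl, 0.5 mM EDTA, 0.1% Triton X-100; reaction started with substrate mix of 20 mM DHO, 5 mM CoQ6, 1 mM DCIP. End-point read as DCIP reduction (absorbance ~600 nm) after brequinar quench.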

[2] = system: MOLM-13 cells (human acute myeloid leukemia cells); assay: MOLM-13 Cellular Assay; type: cell-based; details: 72 hours exposure, cell viability by CellTiter-Glo
How it was run: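 MOLM-13 AML cells, seeded at 5,000/well in RPMI 1640 with 10% FBS, were treated with compounds right after seeding for 72 h at 37 °C, 5% CO2. Viability read by CellTiter-Glo luminescence.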

Chain of human DHODH (Q02127 whole entry): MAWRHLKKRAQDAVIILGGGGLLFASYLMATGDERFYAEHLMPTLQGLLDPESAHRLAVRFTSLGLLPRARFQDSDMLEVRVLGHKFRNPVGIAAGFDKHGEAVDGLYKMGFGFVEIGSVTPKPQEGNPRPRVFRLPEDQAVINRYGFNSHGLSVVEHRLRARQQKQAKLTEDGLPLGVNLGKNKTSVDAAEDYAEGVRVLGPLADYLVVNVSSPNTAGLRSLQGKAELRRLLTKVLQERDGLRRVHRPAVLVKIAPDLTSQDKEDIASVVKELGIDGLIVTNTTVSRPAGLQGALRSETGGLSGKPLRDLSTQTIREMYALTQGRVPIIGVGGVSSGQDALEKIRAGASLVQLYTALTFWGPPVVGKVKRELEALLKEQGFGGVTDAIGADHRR

SMILES	IC50 [1] [nM]	IC50 ([2]; Homo sapiens, MOLM-13, 72 h) [nM]	IC50 [2] [nM]
CCn1c(CO)nn(-c2cc3c(C(C)C)cn(-c4cncnc4C)c(=O)c3cc2F)c1=O [Example 94, 6-(4-Ethyl-3-(hydroxymethyl)-5-oxo-4,5-dihydro-1H-1,2,4-triazol-1-yl)-7-fluoro-4-isopropyl-2-(4-methylpyrimidin-5-yl)isoquinolin-1(2H)-one]	566	> 100	
CCn1c(CO)nn(-c2cc3c(C(C)C)cn(-c4ccccc4OC)c(=O)c3cc2F)c1=O [Example 95, 6-(4-Ethyl-3-(hydroxymethyl)-5-oxo-4,5-dihydro-1H-1,2,4-triazol-1-yl)-7-fluoro-4-isopropyl-2-(2-methoxyphenyl)isoquinolin-1(2H)-one]	0.772	1	
CCn1c(CO)nn(-c2cc3c(C(C)C)cn(-c4nc(OC)ccc4F)c(=O)c3cc2F)c1=O [Example 96, 6-(4-Ethyl-3-(hydroxymethyl)-5-oxo-4,5-dihydro-1H-1,2,4-triazol-1-yl)-7-fluoro-2-(3-fluoro-6-methoxypyridin-2-yl)-4-isopropylisoquinolin-1(2H)-one]	6.14	9	
CCn1c(CO)nn(-c2cc3c(C(C)C)cn(-c4nccnc4C)c(=O)c3cc2F)c1=O [Example 97, 6-(4-Ethyl-3-(hydroxymethyl)-5-oxo-4,5-dihydro-1H-1,2,4-triazol-1-yl)-7-fluoro-4-isopropyl-2-(3-methylpyrazin-2-yl)isoquinolin-1(2H)-one]	> 10000	> 100	
CCn1c(CO)nn(-c2cc3c(C(C)C)cn(-c4cc(C)cnc4Cl)c(=O)c3cc2F)c1=O [Example 98, 2-(2-Chloro-5-methylpyridin-3-yl)-6-(4-ethyl-3-(hydroxymethyl)-5-oxo-4,5-dihydro-1H-1,2,4-triazol-1-yl)-7-fluoro-4-isopropylisoquinolin-1(2H)-one]	6.29	50	
CCn1c(CO)nn(-c2nc3c(C(C)C)cn(-c4cc(C)ccc4F)c(=O)c3cc2F)c1=O [Example 99, 2-(4-Ethyl-3-(hydroxymethyl)-5-oxo-4,5-dihydro-1H-1,2,4-triazol-1-yl)-3-fluoro-6-(2-fluoro-5-methylphenyl)-8-isopropyl-1,6-naphthyridin-5(6H)-one]	6.1	7	
CCn1c(CO)nn(-c2cc3c([C@H](C)C(F)(F)F)cn(-c4ccccc4C)c(=O)c3cc2F)c1=O [Example 101, (S)-6-(4-Ethyl-3-(hydroxymethyl)-5-oxo-4,5-dihydro-1H-1,2,4-triazol-1-yl)-7-fluoro-2-(o-tolyl)-4-(1,1,1-trifluoropropan-2-yl)isoquinolin-1(2H)-one]	1.19	0.4	
CCn1c(CO)nn(-c2cc3c(C(C)C)cn(-c4ncncc4C)c(=O)c3cc2F)c1=O [Example 104, 6-(4-Ethyl-3-(hydroxymethyl)-5-oxo-4,5-dihydro-1H-1,2,4-triazol-1-yl)-7-fluoro-4-isopropyl-2-(5-methylpyrimidin-4-yl)isoquinolin-1(2H)-one]	43.5	> 100	
CCn1c(CO)nn(-c2cc3c(C(C)C)cn(-c4ccccc4C(F)F)c(=O)c3cc2F)c1=O [Example 105, 2-(2-(Difluoromethyl)phenyl)-6-(4-ethyl-3-(hydroxymethyl)-5-oxo-4,5-dihydro-1H-1,2,4-triazol-1-yl)-7-fluoro-4-isopropylisoquinolin-1(2H)-one]	0.528	≤ 0.2	0.2
CCn1c(CO)nn(-c2cc3c(C(C)C)cn(-c4nccc(OC)c4Cl)c(=O)c3cc2F)c1=O [Example 110, 2-(3-Chloro-4-methoxypyridin-2-yl)-6-(4-ethyl-3-(hydroxymethyl)-5-oxo-4,5-dihydro-1H-1,2,4-triazol-1-yl)-7-fluoro-4-isopropylisoquinolin-1(2H)-one]	10.4	20	
CCn1c(CO)nn(-c2cc3c(C(C)C)cn([C@@H]4CCCC[C@@H]4C)c(=O)c3cc2F)c1=O [Example 111, 6-(4-Ethyl-3-(hydroxymethyl)-5-oxo-4,5-dihydro-1H-1,2,4-triazol-1-yl)-7-fluoro-4-isopropyl-2-((1R,2S)-2-methylcyclohexyl)isoquinolin-1(2H)-one]	3.54	0.7	
CCn1c(CO)nn(-c2cc3c(C(C)C)cn([C@H]4CCCC[C@H]4C)c(=O)c3cc2F)c1=O [Example 114, 6-(4-Ethyl-3-(hydroxymethyl)-5-oxo-4,5-dihydro-1H-1,2,4-triazol-1-yl)-7-fluoro-4-isopropyl-2-((1S,2R)-2-methylcyclohexyl)isoquinolin-1(2H)-one]	11.6	3	
CCn1c(CO)nn(-c2cc3c(C(C)C)cn(CC4CC4)c(=O)c3cc2F)c1=O [Example 115, 2-(Cyclopropylmethyl)-6-(4-ethyl-3-(hydroxymethyl)-5-oxo-4,5-dihydro-1H-1,2,4-triazol-1-yl)-7-fluoro-4-isopropylisoquinolin-1(2H)-one]	50.9	80	
CCn1c(CO)nn(-c2cc3c(C(C)C)cn(-c4ncccc4C)c(=O)c3cc2F)c1=O [Example 118, 6-(4-Ethyl-3-(hydroxymethyl)-5-oxo-4,5-dihydro-1H-1,2,4-triazol-1-yl)-7-fluoro-4-isopropyl-2-(3-methylpyridin-2-yl)isoquinolin-1(2H)-one]	14.8	10	
CCC(CC)n1cc(C(C)C)c2cc(-n3nc(CO)n(CC)c3=O)c(F)cc2c1=O [Example 122, 6-(4-Ethyl-3-(hydroxymethyl)-5-oxo-4,5-dihydro-1H-1,2,4-triazol-1-yl)-7-fluoro-4-isopropyl-2-(pentan-3-yl)isoquinolin-1(2H)-one]	13.4	10	

More lines, in order of falling IC50 [1], values ahead:

IC50 [1] [nM]	IC50 ([2]; Homo sapiens, MOLM-13, 72 h) [nM]	IC50 [2] [nM]	SMILES
70.7	> 100		CCn1c(CO)nn(-c2cc3c(C(C)C)cn(-c4nnccc4C)c(=O)c3cc2F)c1=O [Example 100, 6-(4-Ethyl-3-(hydroxymethyl)-5-oxo-4,5-dihydro-1H-1,2,4-triazol-1-yl)-7-fluoro 4-isopropyl-2-(4-methylpyridazin-3-yl)isoquinolin-1(2H)-one]
35.3	30		CCn1c(CO)nn(-c2cc3c(C(C)C)cn(C(COC)COC)c(=O)c3cc2F)c1=O [Example 112, 2-(1,3-Dimethoxypropan-2-yl)-6-(4-ethyl-3-(hydroxymethyl)-5-oxo-4,5-dihydro-1H-1,2,4-triazol-1-yl)-7-fluoro-4-isopropylisoquinolin-1(2H)-one]
30.7	20		CCC(COC)n1cc(C(C)C)c2cc(-n3nc(CO)n(CC)c3=O)c(F)cc2c1=O (centres unmarked) [Example 116, 6-(4-Ethyl-3-(hydroxymethyl)-5-oxo-4,5-dihydro-1H-1,2,4-triazol-1-yl)-7-fluoro-4-isopropyl-2-(1-methoxybutan-2-yl)isoquinolin-1(2H)-one]
19	7		CCn1c(CO)nn(-c2cc3c(C(C)C)cn(C45CCC(CC4)C5)c(=O)c3cc2F)c1=O [Example 128, 2-(Bicyclo[2.2.1]heptan-1-yl)-6-(4-ethyl-3-(hydroxymethyl)-5-oxo-4,5-dihydro-1H-1,2,4-triazol-1-yl)-7-fluoro-4-isopropylisoquinolin-1(2H)-one]
5.37	9		CCn1c(CO)nn(-c2cc3c(C(C)C)cn(C4CCCC4)c(=O)c3cc2F)c1=O [Example 109, 2-Cyclopentyl-6-(4-ethyl-3-(hydroxymethyl)-5-oxo-4,5-dihydro-1H-1,2,4-triazol-1-yl)-7-fluoro-4-isopropylisoquinolin-1(2H)-one]
4.88	10		CCn1c(CO)nn(-c2cc3c(C(C)C)cn(-c4ccnc(OC)c4Cl)c(=O)c3cc2F)c1=O [Example 106, 2-(3-Chloro-2-methoxypyridin-4-yl)-6-(4-ethyl-3-(hydroxymethyl)-5-oxo-4,5-dihydro-1H-1,2,4-triazol-1-yl)-7-fluoro-4-isopropylisoquinolin-1(2H)-one]
3.07	6		CCn1c(CO)nn(-c2cc3c(C(C)C)cn(-c4nc(C)ccc4Cl)c(=O)c3cc2F)c1=O [Example 108, 2-(3-Chloro-6-methylpyridin-2-yl)-6-(4-ethyl-3-(hydroxymethyl)-5-oxo-4,5-dihydro-1H-1,2,4-triazol-1-yl)-7-fluoro-4-isopropylisoquinolin-1(2H)-one]
2.1	3		CCn1c(CO)nn(-c2cc3c(C(C)C)cn(-c4cc(OC)ncc4C)c(=O)c3cc2F)c1=O [Example 113, 6-(4-Ethyl-3-(hydroxymethyl)-5-oxo-4,5-dihydro-1H-1,2,4-triazol-1-yl)-7-fluoro-4-isopropyl-2-(2-methoxy-5-methylpyridin-4-yl)isoquinolin-1(2H)-one]
2.07	6		CCn1c(CO)nn(-c2cc3c(C(C)C)cn(C4CCCCC4)c(=O)c3cc2F)c1=O [Example 107, 2-Cyclohexyl-6-(4-ethyl-3-(hydroxymethyl)-5-oxo-4,5-dihydro-1H-1,2,4-triazol-1-yl)-7-fluoro-4-isopropylisoquinolin-1(2H)-one]
0.669	0.3		CCn1c(CO)nn(-c2cc3c(C(C)C)cn(-c4ccccc4C(F)(F)F)c(=O)c3cc2F)c1=O [Example 103, 6-(4-Ethyl-3-(hydroxymethyl)-5-oxo-4,5-dihydro-1H-1,2,4-triazol-1-yl)-7-fluoro-4-isopropyl-2-(2-(trifluoromethyl)phenyl)isoquinolin-1(2H)-one]
0.26	0.3		CCn1c(CO)nn(-c2cc3c([C@@H](C)C(F)(F)F)cn(-c4ccccc4C)c(=O)c3cc2F)c1=O [Example 102, (R)-6-(4-Ethyl-3-(hydroxymethyl)-5-oxo-4,5-dihydro-1H-1,2,4-triazol-1-yl)-7-fluoro-2-(o-tolyl)-4-(1,1,1-trifluoropropan-2-yl)isoquinolin-1(2H)-one]
